In patent US9402818B2, “Use of amides of mono- and dicarboxylic acids in the treatment of renal diseases” (priority 2010, dated 2016):
Values joined by “and” are separate entries in the source; they are usually repeats but may differ in a detail not shown here. Equal entries are not always repeated.

Assays:
TGF-1β [1] = assay: TGF-1β in renal cortex by ELISA, Cisplatin mice; format: in vivo, male mice C57BL6/J; conditions: pg/mg of total proteins
Method: (§1) The level of TGF-1β on the renal tissue was measured through the following method: small pieces of the renal cortex, carefully separated and weighed, were homogenised in Tris-HCl 10 mM buffer at a 7.4 pH containing 2M of NaCl, 1 mM PMSF (phenylmethylsulfonyl fluoride, as a protease inhibitor), 1 mM EDTA and 0.01% of Tween 80. The samples were centrifuged at 19,000 rpm for 30 minutes and the supernatant was collected, measured and preserved at −80° C. The amount of the TGF-1β was measured using the ELISA commercial kit (Quantikine Kit™, Res & Diagn Systems, Minneapolis, USA) and the value expressed in pg/mg of total proteins. The concentration of total proteins was measured using the Bio-Rad commercial test (Hercules, Calif., USA).

[2] = tested on: renal damage after administration of streptozotocin to mice; assay: Renal damage after administration of streptozotocin to mice (diabetic nephropathy model); format: in vivo, male mice C57BL6/J
From the text: The model of streptozootocin in mice represents a classic and known model of hyperglycemia capable of inducing a progressive renal damage into the animal leading to the renal disease with clear alterations of the characteristic parameters.
The model applied is as follows: male mice C57BL6/J were kept under standard conditions of care. Diabetes was induced into 8-weeks old mice and with an average weight of about 22 g by means of an intraperitoneal injection of streptozotocin in citrate buffer (55 mg/Kg of weight/day) for 5 consecutive days. The control animals were treated in the same conditions using the citrate buffer alone.
Treatments were administered orally, by means of a tube, using both micronized Palmitoylethanolamide- PEAm (10.0 mg/Kg) suspended in a carrier and ultra-micronized palmitoylethanolamide PEAum (10.0 mg/Kg) suspended in a carrier; the results were compared with control animals treated with the carrier alone. A 0.5% carboxymethyl cellulose was used as a carrier.
Diethanolamide of fumaric acid was administered in sterile aqueous saline solution by intraperitoneal injection (10.0 mg/Kg); the results were compared with the animals treated with sterile saline solution alone.
Administration of the carrier and of the two different suspensions containing palmitoylethanolamide or of the injection solution containing diethanolamide of fumaric acid, were performed once per day starting from the day of the last administration of Streptozotocin. Prior to sacrifice, the blood was collected from the saphenous vein using a micro syringe to determining, through conventional methods, the levels of glycemia, glycated haemoglobin and creatinine of the serum.

[3] = tested on: renal damage after administration of Cisplatin to mice; assay: Renal damage after administration of Cisplatin to mice (nephrotoxicity model); format: in vivo, male mice C57BL6/J; conditions: for Body weight: Cisplatin mice (20 mg/Kg i.p.); for Concentration of creatinine in the serum / Kidney weight/body weight / Amount of albumin excreted with urine (18 hrs prior to sacrifice): Cisplatin mice
From the text: Cisplatin, a known and widely used chemotherapy agent, notoriously produces a serious renal damage in 50% of the patients subjected to treatment. Experimentally an animal model is used in mice, in which Cisplatin induces serious nephrotoxicity with ensuing renal disease. The model applied is as follows: male mice C57BL6/J were kept under standard conditions of care. Nephrotoxicity was induced into 8-weeks old mice and with an average weight of about 23 g, by means of an intraperitoneal injection of Cisplatin dihydrochloride in saline solution (20 mg/Kg in one administration). The control animals were treated in the same conditions using the saline solution alone. The animals were sacrificed 72 hrs after treatment with Cisplatin.
6 treatments were administered orally, one each 12 hrs by means of a tube, using both micronized palmitoylethanolamide-PEAm (10.0 mg/Kg) suspended in a carrier and ultra-micronized palmitoylethanolamide-PEAum (10.0 mg/Kg) suspended in a carrier; the first treatment was carried out 12 hours prior to the administration of the Cisplatin. The results were compared with control animals treated with the carrier alone. A 0.5% carboxymethyl cellulose solution was used as the carrier.
Diethanolamide of fumaric acid was administered in sterile aqueous saline solution by intraperitoneal injection (10.0 mg/Kg) with posology analogous to that of PEA; the results were compared with animals treated with sterile saline solution alone.
Prior to sacrifice, the blood was collected from the saphenous vein using a micro syringe to measure, through conventional methods, the levels of creatinine of the serum.

TGF-1β [4] = assay: TGF-1β in renal cortex by ELISA, streptozotocin mice; format: in vivo, male mice C57BL6/J; conditions: pg/mg of total proteins, diabetic mice
Method: as §1, with “The evaluation of TGF-1β” for “The level of TGF-1β”, “tissue was administered through the” for “tissue was measured through the”, “buffer at 7.4 pH” for “buffer at a 7.4 pH”, “protease inhibitor), 1mM EDTA and” for “protease inhibitor), 1 mM EDTA and”, “C. The evaluation of the” for “C. The amount of the”, “TGF-1β was made using the” for “TGF-1β was measured using the”

[5] = tested on: renal function of nephropathic patients; assay: Effect of ultra-micronized palmitoylethanolamide in nephropathic patients; format: in vivo, human; conditions: 600 mg tablets, 2 per day, 60 days; for GFR Glomerulal Filtration Rate (Creatinine Clearance) T 60: Cockcroft-Gault; for Glycemia under fasting T 60: single patients Paz-04, -05, -06, diabetic nephropathy, compensated with insulin, T 0 values 210, 240, 280 mg/dl
Method: Palmitoylethanolamide was administered to patients in form of tablets each containing 600 mg of active ingredient in ultra-micronized form; 2 tablets per day (one every 12 hours, after meals) were administered to patients for 60 consecutive days).
Determination of the GRF (Glomerular Filtration Rate) by the creatinine endogenous marker was carried out according to the […] criteria (K/DOQI clinical practice guidelines for chronic kidney disease, 2002), using the Cockcroft-Gault equation (Cockcroft D. W. et al, 1976).

Solubility in water = format: physicochemical
[6] = 10.0 mg/Kg orally every 12 hrs x6, carrier alone 25.3 ± 6.0, control 8.2 ± 0.7, 10 mg/kg
[7] = 10.0 mg/Kg orally once per day in 0.5% carboxymethyl cellulose, carrier alone 25.12 ± 1.10, non-diabetic 27.82 ± 1.18, 10 mg/kg
[8] = 10.0 mg/Kg orally once per day, carrier alone 1.11 ± 0.02, non-diabetic 0.21 ± 0.01, 10 mg/kg
[9] = 10.0 mg/Kg orally once per day, carrier alone 8.65 ± 0.85, non-diabetic 6.65 ± 0.04, 10 mg/kg
[10] = 10.0 mg/Kg orally once per day, carrier alone 12.80 ± 0.44, non-diabetic 4.89 ± 0.05, 10 mg/kg
[11] = 10.0 mg/Kg orally once per day, carrier alone 340.5, non-diabetic 33.7, 10 mg/kg
[12] = 10.0 mg/Kg orally once per day, carrier alone 408.45 ± 33.12, non-diabetic 122.2 ± 5.62, 10 mg/kg
[13] = 10.0 mg/Kg orally every 12 hrs x6, sacrifice 72 hrs, carrier alone 23.10 ± 1.22, control 26.12 ± 1.11
[14] = 10.0 mg/Kg orally every 12 hrs x6, carrier alone 1.26 ± 0.05, control 0.22 ± 0.01, 10 mg/kg
[15] = 10.0 mg/Kg orally every 12 hrs x6, carrier alone 7.22 ± 0.80, control 6.44 ± 0.03, 10 mg/kg
[16] = 10.0 mg/Kg orally every 12 hrs x6, carrier alone 363.75, control 37.4, 10 mg/kg
[17] = 10.0 mg/Kg orally once per day, carrier alone 24.2 ± 5.8, non-diabetic 7.5 ± 0.8, 10 mg/kg

| SMILES | TGF-1β level in renal cortex (pg/mg total protein) (TGF-1β [1]; [6]) [pg/mg] | Body weight [2, 7] [g] | Concentration of creatinine in the serum [2, 8] [mg/dL] | Kidney weight/body weight [2, 9] | Glycated haemoglobin % [2, 10] [%] | Amount of albumin excreted with urine (18 hrs prior to sacrifice) [2, 11] | Glycemia [2, 12] [mg/dL] | Body weight [3, 13] [g] | Concentration of creatinine in the serum [3, 14] [mg/dL] | Kidney weight/body weight [3, 15] | Amount of albumin excreted with urine (18 hrs prior to sacrifice) [3, 16] | Level of TGF-1β (TGF-1β [4]; [17]) [pg/mg] | also measured |
| --- | --- | --- | --- | --- | --- | --- | --- | --- | --- | --- | --- | --- | --- |
| CCCCCCCCCCCCCCCC(=O)NCCO [PEAm, Palmitoylethanolamide] | 15.8 ± 3.5 | 26.52 ± 1.08 | 0.81 ± 0.01 | 7.85 ± 0.44 | 11.32 ± 0.38 | 289.4 | 386.12 ± 36.76 | 23.58 ± 1.13 | 0.92 ± 0.03 | 7.85 ± 0.34 | 270.90 | 15.0 ± 3.0 | – |
| CCCCCCCCCCCCCCCC(=O)NCCO [PEAum, Palmitoylethanolamide] | 9.4 ± 3.2 | 26.12 ± 1.21 | 0.44 ± 0.01 | 7.15 ± 0.38 | 11.01 ± 0.18 | 151.5 | 380.34 ± 34.16 | 24.55 ± 1.09 | 0.48 ± 0.02 | 6.89 ± 0.42 | 175.9 | 10.3 ± 2.5 | GFR Glomerulal Filtration Rate (Creatinine Clearance) T 60 ([5]; single patients Paz-01, -02, -03, chronic inflammatory nephropathy, T 0 values 26.4, 21.4, 20.7): 44.6 and 35.2 and 36.1; GFR Glomerulal Filtration Rate (Creatinine Clearance) T 60 ([5]; single patients Paz-04, -05, -06, diabetic nephropathy (diabetes type 2), T 0 values 18.9, 22.4, 21.8): 41.4 and 35.6 and 39.8; Glycemia under fasting T 60 ([5]; with 10 U ready insulin): 230 mg/dL; Glycemia under fasting T 60 ([5]; with 10 U ready plus 20 U retard insulin): 210 mg/dL; Glycemia under fasting T 60 ([5]; with 12 U retard insulin): 110 mg/dL |
| O=C(/C=C/C(=O)NCCO)NCCO [diethanolamide of fumaric acid, Diethanolamide of fumaric acid] | – | – | – | – | – | – | – | – | – | – | – | – | Solubility in water (Solubility in water): high solubility; TGF-1β level in renal cortex (pg/mg total protein) (TGF-1β [1]; 10.0 mg/Kg i.p., saline alone 22.1 ± 4.3, control 8.2 ± 0.7): 9.1 ± 2.8 pg/mg; Body weight ([2]; 10.0 mg/Kg i.p. once per day in saline solution, saline alone 24.43 ± 1.15, non-diabetic 27.82 ± 1.18): 26.22 ± 1.02 g; Concentration of creatinine in the serum ([2]; 10.0 mg/Kg i.p. once per day, saline alone 1.51 ± 0.08, non-diabetic 0.21 ± 0.01): 0.51 ± 0.03 mg/dL; Kidney weight/body weight ([2]; 10.0 mg/Kg i.p. once per day, saline alone 9.00 ± 0.56, non-diabetic 6.65 ± 0.04): 7.02 ± 0.46; Glycated haemoglobin % ([2]; 10.0 mg/Kg i.p. once per day, saline alone 13.41 ± 0.63, non-diabetic 4.89 ± 0.05): 12.12 ± 0.26%; Amount of albumin excreted with urine (18 hrs prior to sacrifice) ([2]; 10.0 mg/Kg i.p. once per day, saline alone 315.05, non-diabetic 33.7): 135.7; Glycemia ([2]; 10.0 mg/Kg i.p. once per day, saline alone 406.32 ± 33.44, non-diabetic 122.2 ± 5.62): 386.19 ± 33.98 mg/dL; Body weight ([3]; 10.0 mg/Kg i.p. in saline solution, posology as PEA, saline alone 24.22 ± 1.45, control 26.12 ± 1.11): 24.15 ± 1.12 g; Concentration of creatinine in the serum ([3]; 10.0 mg/Kg i.p., saline alone 1.36 ± 0.02, control 0.22 ± 0.01): 0.83 ± 0.06 mg/dL; Kidney weight/body weight ([3]; 10.0 mg/Kg i.p., saline alone 8.15 ± 0.46, control 6.44 ± 0.03): 6.58 ± 0.26; Amount of albumin excreted with urine (18 hrs prior to sacrifice) ([3]; 10.0 mg/Kg i.p., saline alone 351.57, control 37.4): 181.4; Level of TGF-1β (TGF-1β [4]; 10.0 mg/Kg i.p. once per day, saline alone 25.3 ± 4.6, non-diabetic 7.5 ± 0.8): 11.7 ± 3.2 pg/mg |
